Measurements taken from US6132697A, “Radiopharmaceutical compositions capable of localizing at sites of thrombus” (G. D. Searle & Co., priority 1997, dated 2000).

What was measured:
GPIIb/IIIa receptors = target: T1, GPIIb/IIIa receptors (Homo sapiens, UniProt P05106+P08514); experiment: ADP induced platelet aggregation inhibition assay in platelet rich plasma; format: cell-based; conditions: read-out: IC50 (half-maximal inhibition of platelet aggregation)
T1 construct: endogenous in cells; host or cells: platelets in platelet rich plasma from healthy volunteer donors
Procedure: This Example describes Platelet Aggregation Inhibition Assays of the compound of Example 2 to illustrate that the compound binds to GPIIb/IIIa receptors when radiolabelled.
Healthy aspirin free donors were randomly selected from a pool of volunteers. The harvesting of platelet rich plasma and subsequent ADP induced platelet aggregation assays were performed as described in Zucker, M. B. "Platelet Aggregation Measured by the Photometric Method", Methods in Enzymology 169 (1989):117-133. Standard venipuncture techniques using butterfly allowed the withdrawal of 45 mL of whole blood into a 60 mL syringe containing 5 mL 3.8% trisodium citrate. Following thorough mixing in the syringe, the anti-coagulated whole blood was transferred to a 50 mL conical polyethylene tube. The blood was centrifuged at room temperature for 12 minutes at 200xg to sediment non-platelet cells. Platelet poor plasma was obtained from a second centrifugation of the remaining blood at 2000xg for 15 minutes. Platelet counts are typically 300,000 to 500,000 per microliter. […] Aggregation was recorded for 3 minutes in a Payton dual channel aggregometer (Payton Scientific, Buffalo, N.Y.). […] The compounds were tested in duplicate and half-maximal inhibition (IC50) was calculated graphically from the dose response curve. […]

[1] = tested on: pulmonary emboli (PE) and/or deep vein thrombus (DVT); experiment: Canine model for pulmonary embolism / deep vein thrombus (embolization coils); format: in vivo, dog; conditions: sacrifice at 3 hours
Procedure: These studies are designed to serve as a preliminary screen of various radiolabeled pharmaceuticals for the purpose of imaging pulmonary emboli (PE) and/or deep vein thrombus (DVT).
Procedure: The dog is first anesthetized with an intravenous injection of sodium pentobarbital (30 mg/kg). An IV catheter is placed into the jugular vein and advanced to the pulmonary artery. Visualization of the catheter placement is facilitated using fluoroscopy. Embolization coils of various sizes (3-8 mm) are next released via the catheter using the appropriate guide wire, and localization of the coils is followed by fluoroscopy. After a satisfactory number of coils (3-5) have been placed and visualized, the catheter is removed and the vein ligated. The formation of a deep vein thrombus (DVT) in the saphenous vein is facilitated by the placement of a 16 gauge needle into the vein followed by the passage of a 5 mm embolization coil through the needle directly into the vein.
IV injection (cephalic vein) of the radiolabeled test article occurs approximately 30-45 minutes post placement of the embolization coils. Approximate activity injected is 2.5-3.5mCi. Beginning at 30 minutes post injection and continuing for several hours at 30 minute intervals, the animal is scintigraphed in both the lateral and supine positions.
At the conclusion of the imaging portion of the study (3 hours) the animal is sacrificed, and selected tissues removed for scintillation counting. The coils are located, removed and quantitated for uptake of the radiotracer. From these values is determined the target:non-target ratios and blood clearance of the test article.
The compound of claim 19 was administered to a canine according to the general protocol described in Example 16.

[2] = Biodistribution in rat model (radioactivity in organs, excretion); format: in vivo, Sprague-Dawley rats
Procedure: This study was designed to evaluate the biodistribution pattern of the compound of Example 2 to determine the clearance profile from blood, route of excretion and in vivo stability of the complex by HPLC analysis of urine samples, in a rat model.
The compound of Example 2 was injected ([…], 1.5-3.5 mCi/mL) into Sprague-Dawley rats. Groups of three animals were sacrificed at the time points indicated below to determine the amount of radioactivity remained in the organs. Results: (to be filled)
The compound of Example 7 was injected ([…], 1.5-3.5 mCi/mL) into Sprague-Dawley rats. Groups of three animals were sacrificed at the time points indicated below to determine the amount of radioactivity (%ID/g) remaining in the organs.
The compound of Example 12 was injected into Sprague-Dawley rats according to the procedure outlined in Example 5. The amount of radioactivity present in the major excretionary organs at different time points (1, 4 and 24 hours) are given below.
The compound of Example 19 was injected into Sprageue-Dawley rats according to the procedure outlined earlier. The amount of radioactivity present in the major excretionary organs at different time points (1, 4 and 24 hours) are given below.
The compound of Example 26 was injected ([…], 1.5-3.5 mCi/mL) into Sprague-Dawley rats. Groups of three animals were sacrificed at the time points indicated below to determine the amount of radioactivity remaining in the organs.

T1 sequence (P08514 32-887 limits assumed): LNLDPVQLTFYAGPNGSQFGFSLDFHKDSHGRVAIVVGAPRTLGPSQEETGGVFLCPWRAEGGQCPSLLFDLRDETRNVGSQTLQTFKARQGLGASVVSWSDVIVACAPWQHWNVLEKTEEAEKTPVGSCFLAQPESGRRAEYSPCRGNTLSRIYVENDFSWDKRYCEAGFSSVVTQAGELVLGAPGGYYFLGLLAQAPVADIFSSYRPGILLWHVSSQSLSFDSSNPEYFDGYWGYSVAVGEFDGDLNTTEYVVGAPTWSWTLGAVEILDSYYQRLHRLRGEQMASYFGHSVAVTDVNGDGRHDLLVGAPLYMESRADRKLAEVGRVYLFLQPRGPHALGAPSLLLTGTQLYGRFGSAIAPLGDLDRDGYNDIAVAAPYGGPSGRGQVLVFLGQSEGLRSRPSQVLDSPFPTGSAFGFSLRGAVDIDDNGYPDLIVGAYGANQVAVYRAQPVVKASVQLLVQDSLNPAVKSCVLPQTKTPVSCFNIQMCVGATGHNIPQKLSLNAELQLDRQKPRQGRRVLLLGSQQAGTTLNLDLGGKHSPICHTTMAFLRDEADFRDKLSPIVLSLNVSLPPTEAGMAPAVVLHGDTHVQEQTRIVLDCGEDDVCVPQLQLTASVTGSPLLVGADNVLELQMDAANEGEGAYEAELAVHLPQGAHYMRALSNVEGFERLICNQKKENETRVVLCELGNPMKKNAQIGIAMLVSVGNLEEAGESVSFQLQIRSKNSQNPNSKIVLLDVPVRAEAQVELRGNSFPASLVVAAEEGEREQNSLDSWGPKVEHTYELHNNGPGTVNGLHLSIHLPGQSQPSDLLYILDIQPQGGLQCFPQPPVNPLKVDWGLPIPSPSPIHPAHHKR
T1 sequence (P08514 891-1039 partner limits assumed): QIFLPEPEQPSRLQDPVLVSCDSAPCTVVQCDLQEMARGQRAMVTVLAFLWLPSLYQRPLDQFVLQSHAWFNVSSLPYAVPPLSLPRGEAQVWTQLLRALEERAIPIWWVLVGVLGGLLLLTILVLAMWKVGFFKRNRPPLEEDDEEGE
T1 sequence (P05106 27-788): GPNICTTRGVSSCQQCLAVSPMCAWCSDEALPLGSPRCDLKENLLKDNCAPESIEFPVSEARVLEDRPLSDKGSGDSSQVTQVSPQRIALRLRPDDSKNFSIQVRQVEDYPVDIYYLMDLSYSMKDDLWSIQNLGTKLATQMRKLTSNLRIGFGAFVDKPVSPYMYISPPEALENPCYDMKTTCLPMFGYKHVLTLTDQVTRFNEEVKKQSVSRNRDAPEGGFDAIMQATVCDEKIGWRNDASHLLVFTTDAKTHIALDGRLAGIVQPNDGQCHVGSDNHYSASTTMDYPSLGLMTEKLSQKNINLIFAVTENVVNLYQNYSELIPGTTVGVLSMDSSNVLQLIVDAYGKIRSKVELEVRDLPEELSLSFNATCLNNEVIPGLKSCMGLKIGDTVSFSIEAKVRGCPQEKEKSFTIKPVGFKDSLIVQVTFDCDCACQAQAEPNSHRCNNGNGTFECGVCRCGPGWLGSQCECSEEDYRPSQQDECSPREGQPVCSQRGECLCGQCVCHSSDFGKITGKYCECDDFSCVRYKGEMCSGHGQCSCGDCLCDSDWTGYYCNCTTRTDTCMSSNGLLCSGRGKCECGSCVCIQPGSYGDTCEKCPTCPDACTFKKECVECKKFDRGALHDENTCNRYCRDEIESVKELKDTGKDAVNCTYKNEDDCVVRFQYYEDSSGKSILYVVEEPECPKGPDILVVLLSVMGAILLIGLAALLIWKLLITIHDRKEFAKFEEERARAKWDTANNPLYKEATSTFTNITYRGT

Compound	IC50 (GPIIb/IIIa receptors) [nM]	radioactivity in organ: Blood ([2]; 1 hour) [% ID/g]	radioactivity in organ: Kidney ([2]; 1 hour) [% ID/g]	radioactivity in organ: Liver ([2]; 1 hour) [% ID/g]	radioactivity in organ: Sml. Int & Contents ([2]; 1 hour) [% ID/g]	radioactivity in organ: Blood ([2]; 4 hours) [% ID/g]	radioactivity in organ: Kidney ([2]; 4 hours) [% ID/g]	radioactivity in organ: Liver ([2]; 4 hours) [% ID/g]	radioactivity in organ: Sml. Int & Contents ([2]; 4 hours) [% ID/g]	radioactivity in organ: Blood ([2]; 24 hours) [% ID/g]	radioactivity in organ: Kidney ([2]; 24 hours) [% ID/g]	radioactivity in organ: Liver ([2]; 24 hours) [% ID/g]	radioactivity in organ: Sml. Int & Contents ([2]; 24 hours) [% ID/g]	% ID excreted in the feces at 24 hr. [2] [% ID]	% ID excreted in the urine at 24 hr. [2] [% ID]	other results
CN(C)CCNC(=O)C(CCC(=O)O)NC(=O)C(CCCCNC(=O)CCNC(=O)C(CC(=O)O)NC(=O)CCC(=O)Nc1ccc(C(=N)N)cc1)NC(=O)CSC1CCCCO1 [Example 18, ABAS-L-Asp-β-Ala-ε-L-Lys(α-S-THP-mercaptoacetyl)-Glu-dme]	490															
CN(C)CC[N]1C(=O)C(CCC(=O)O)[N]2C(=O)C(CCCCNC(=O)CCNC(=O)C(CC(=O)O)NC(=O)CCC(=O)Nc3ccc(C(=N)N)cc3)[N]3C(=O)C[S][99Tc-]132=[O] (centres unmarked) [Example 19]		0.067	0.864	0.158	0.645	0.011	0.520	0.024	0.015	0.004	0.241	0.009	0.002	32.758	41.217	% ID/g ([1]; Blood): 0.0018 % ID/g; % ID/g ([1]; Clot 1 (DVT)): 0.0828 % ID/g; Clot/blood ([1]; Clot 1 (DVT)): 43; % ID/g ([1]; Clot 2 (PE)): 0.0114 % ID/g; Clot/blood ([1]; Clot 2 (PE)): 6; % ID/g ([1]; Clot 3 (PE)): 0.125 % ID/g; Clot/blood ([1]; Clot 3 (PE)): 65; % ID/g ([1]; Clot 4 (PE)): 0.142 % ID/g; Clot/blood ([1]; Clot 4 (PE)): 74; % ID/g ([1]; Clot 5 (PE)): 0.1232 % ID/g; Clot/blood ([1]; Clot 5 (PE)): 64
CN(C)CC[N]1C(=O)C(CCC(=O)O)[N]2C(=O)C(CCCC(=O)NCCCCC(NC(=O)C(CC(=O)O)NC(=O)CCC(=O)Nc3ccc(C(=N)N)cc3)C(=O)O)[N]3C(=O)C[S][99Tc-]132=[O] (centres unmarked) [Example 26]		0.067	0.628	0.043	0.206	0.011	0.536	0.015	0.031	0.007	0.227	0.014	0.009	16.277	54.708	
CN(C)CC[N]1C(=O)C(CCC(=O)O)[N]2C(=O)C(CCCC(=O)NCCCCC(NC(=O)C(CC(=O)O)NC(=O)CCC(=O)Nc3ccc(C(=N)N)cc3)C(=O)O)[N]3C(=O)C[S][TcH]132=[O] (centres unmarked) [Example 26]	290															
